# Test results as given in patent US8084502B2, “Use of agmatine for protection of retinal ganglion cells” (priority 2007, dated 2011).
# Legend:
# Type in all cases: cell-based, rat
# RGC-5 [1] = test: LDH assay, TNF-α-induced cell death; conditions: 100 μM of agmatine; for LDH release: 50 ng/mL of TNF-α
# Protocol: (§1) The RGC-5 cell line, which is an RGC line developed from post-natal Sprague-Dawley rats, was grown in modified DMEM (Gibco) supplemented with 10% of heat inactivated fetal bovine serum (Gibco) and 100 U/mL of penicillin and 100 μg/mL of streptomycin (Gibco). The cells were passaged every 2 to 3 days and incubated at 37° C. in 5% of CO2 and air. At cultivation, the cells had the same morphology. For all experiments, cells were used at 80% of confluence.
# (§2) After washing twice with PBS, cells were cultured in serum-free DMEM and treated with either 10 or 50 ng/mL of recombinant rat TNF-α (Chemicon) for up to 48 hours. The control cells were not exposed to TNF-α. 100 μM of agmatine was added to the culture medium at the start of injury as indicated.
# Cell viability was quantified by measuring the amounts of LDH released from the injured cells after TNF-α administration. LDH release is expressed as a value relative to the value of 100, which is the maximum LDH release that occurs after freezing each culture at −70° C. overnight and then rapidly thawing, thus inducing nearly complete cell damage. All experiments were performed in at least quadruplicate, and repeated at least eight times using cell cultures derived from different platings.
# caspase-3 = test: Caspase-3 activity (colorimetric, Ac-DEVD-pNA cleavage) after hypoxia; conditions: hypoxia 24 hours; 100 μM of agmatine or 50 μM of Z-VAD-FMK
# Protocol: The RGC-5 cell line, which is a RGC line developed from post-natal Sprague-Dawley rats, was grown in modified Dulbecco's Modified Eagle's Medium (DMEM; Gibco) supplemented with 10% of heat inactivated fetal bovine serum (Gibco) and 100 U/mL of penicillin and 100 μg/mL of streptomycin (Gibco). The cells were passaged every 2 to 3 days, and the cultures incubated at 37° C. in 5% of CO2 and air. […] For all experiments, cells were used at an 80% confluence. Cultures were transferred into a closed hypoxic chamber (Form a Scientific Co.) in which oxygen level (5% of O2, 5% of CO2, 90% of N2) and temperature (37° C.) were controlled. After washing twice with deoxygenated serum-free DMEM, cells were maintained in the hypoxic chamber. Control cells were not exposed to hypoxia. Agmatine or BDNF were added to the culture medium at the start of injury as indicated. Caspase-3 activity was measured using the CaspACE™ colorimetric assay system (Promega, Cat no. G7220) according to the manufacturer's instructions. Briefly, cells were harvested and resuspended in cell lysis buffer (10^8 cells/mL). […] After incubating at 37° C. for 4 hours, absorbance was measured using a microplate reader at 405 nm. Absorbance of each sample was determined by subtraction of the mean absorbance of the blank from that of each sample.
# RGC-5 [2] = test: Annexin-V assay (flow cytometry), TNF-α-induced apoptosis; conditions: 50 ng/mL of TNF-α
# Protocol: as §1, §2
# The percentage of cells actively undergoing apoptosis was determined by flow cytometry using the Annexin V-FITC Apoptosis Detection Kit (BD Biosciences, Cat no. 556547) according to the manufacturer's instructions. Briefly, cells were harvested and resuspended in binding buffer (10^6 cells/mL). 10^5 cells were mixed with 5 μL of annexin V-FITC and 5 μL of PI. After incubating at room temperature for 15 minutes in the dark, analysis was performed by flow cytometry.
compound,measurement,setting,value
N=C(N)NCCCCN [agmatine],LDH release,RGC-5 [1]; 24 hours,5.91±0.86%
same,LDH release,RGC-5 [1]; 48 hours,8.14±2.43%
same,TNF-α-induced LDH release,RGC-5 [1]; all P<0.001,significantly inhibited
same,hypoxia-induced caspase-3 activity,caspase-3,equally suppressed
same,proportion of apoptotic cells,"RGC-5 [2]; 12 hour exposure, agmatine 100 μM",no significant difference
same,proportion of apoptotic cells,"RGC-5 [2]; 24 hours of exposure, 100 μM of agmatine",significant decrease in apoptotic cells
